This note sets out measurements from patent US10485785B2, “Method for producing fine powder and the fine powder produced by the same” (Moriroku Chemicals Company, Ltd., priority 2012, dated 2019).

Assay type in all cases: physicochemical
The nature of data set [1]: dissolution test, pharmacopoeia second law (paddle method). The following applies: 66.7 mg sample suspended in water with 0.1%(w/v) Tween80, 900 mL test liquid, 75 rpm. Here is the method: In order to verify the degree of improvement of solubility of the concurrently pulverized materials, which was obtained by concurrently pulverizing the test compound (phenytoin) made by example 5 and the additive (Hypromellose-Acetate-Succinate (HPMCAS)), the dissolution test was carried out as follows. […] Then the suspension was put into a 900 mL test liquid (50 Mm phosphate buffer solution, pH6.8) and examined under the condition of 75 rpm in compliance with the pharmacopoeia second law (paddle method). A sample consisting of only a compound (phenytoin) to be pulverized was individually pulverized under the conditions shown in Example 5 to obtain a pulverized material, which was used to carry out the dissolution test as follows. A 66.7 mg sample of the pulverized material was suspended in the water, which contains a 0.1%(w/v) Tween80, to obtain a suspension. Then the suspension was put into the 900 mL test liquid and examined under the condition of 75 rpm in compliance with the pharmacopoeia second law (paddle method). […] Before the dissolution test of reference example 1 was carried out, the pulverized material prepared in reference example 1 was mixed with commercially available additives (lactose and L-HPC) in a vessel by hand. Then, the dissolution test was performed as for a mixture of the pulverized material and the additives.

Data set [2] is described as follows: particle size distribution by laser diffraction (dry and wet method). The procedure:
The pulverized particles were dispersed by compressed air (0.4 MPa) and then, the dry particle size distribution was measured by a laser diffraction apparatus for measuring particle size distribution (LMS-30, SEISHIN ENTERPRISE CO., LTD.). On the other hand, the pulverized particles were dispersed in purified water by ultrasonic dispersion (30 seconds) and then, the wet particle size distribution was measured by a laser diffraction apparatus for measuring particle size distribution (SALD-2100, SHIMADZU CORPORATION). (3) Crystalline Properties The crystalline states of the bulk powder and the pulverized particles were measured by a X-ray powder diffraction apparatus (RAD-2VC, Rigaku Corporation) and a differential scanning calorimeters (DSC-60, SHIMADZU CORPORATION). […] As stated above, the dry method particle size distribution was measured by the laser diffraction scattering method (Dry method), while the wet method particle size distribution was measured by the laser diffraction method (Wet method). FIG. 32 represents the particle distribution of the bulk powder of phenytoin (OriB), the particle distribution of the phenytoin (Jet) pulverized by the dry method jet mill, and the particle distribution of the phenytoin (LN2) pulverized by the ultra low temperature medium grinding apparatus (LN2 bead mill) according to the present invention, wherein all the particle distributions were the results measured by the aforementioned dry method (Dry method). FIG. 33 represents the particle distribution of the bulk powder of phenytoin (OriB), the particle distribution of the phenytoin (Jet) pulverized by the dry method jet mill, and the particle distribution of the phenytoin (LN2) pulverized by the ultra low temperature medium grinding apparatus (LN2 bead mill) according to the present invention, wherein all the particle distribution were the results measured by the aforementioned wet method (Wet method). […]

A short description of data set [3]: crystalline properties by powder X-ray diffractometry and differential scanning calorimetry. The procedure: The pulverized particles were dispersed by compressed air (0.4 MPa) and then, the dry particle size distribution was measured by a laser diffraction apparatus for measuring particle size distribution (LMS-30, SEISHIN ENTERPRISE CO., LTD.). On the other hand, the pulverized particles were dispersed in purified water by ultrasonic dispersion (30 seconds) and then, the wet particle size distribution was measured by a laser diffraction apparatus for measuring particle size distribution (SALD-2100, SHIMADZU CORPORATION). (3) Crystalline Properties The crystalline states of the bulk powder and the pulverized particles were measured by a X-ray powder diffraction apparatus (RAD-2VC, Rigaku Corporation) and a differential scanning calorimeters (DSC-60, SHIMADZU CORPORATION). […] FIG. 34 represents the results of powder X-ray diffractometry (XRPD) of the original bulk of phenytoin (OriB), the phenytoin (Jet) pulverized by the dry method jet mill, and the phenytoin (LN2) pulverized by the ultra low temperature medium grinding apparatus (LN2 bead mill) according to the present invention, which were measured by a powder X-ray diffractometry device (RAD-2VC, Rigaku Corporation). […]

Data set [4] can be described thus: observation by scanning electron microscope (SEM). The following applies: pulverized by the LN2 bead mill, SEM FIG. 2(B). The source says:
The exterior appearance of pulverized particles on which platinum is deposited was observed by a scanning electron microscope (JSM-6060, JEOL LTD.).

With `O=C1NC(=O)C(c2ccccc2)(c2ccccc2)N1` [Reference example 1, phenytoin], the “solubility of the pulverized particles in dissolution test” value in data set [1] is given as “not improved, or rather became worse”. Moreover, the “particle diameter after individual pulverization” value in data set [2] (conditions of Example 5) is recorded as not above 0.1 μm.

In turn, `O=C1NC(=O)C(c2ccccc2)(c2ccccc2)N1` [phenytoin (Jet), phenytoin] yielded a degree of crystallinity in data set [3] (from ΔH value versus original bulk, DSC) of 81%. Turning to `O=C1NC(=O)C(c2ccccc2)(c2ccccc2)N1` [phenytoin (LN2), phenytoin], the “rate of submicron size particles relative to particles pulverized by the dry method” value in data set [2] was “three and a half times”. Further, the “percentage of the mass consisting of particles of 1 μm or below (rate of submicron size particles)” value in data set [2] (measured up to) was “up to 32%”. The “crystalline transformation / crystalline descent” value in data set [3] (XRPD and DSC, before and after pulverization) is reported as “crystalline descent was not found”. With `O=C1NC(=O)C(c2ccccc2)(c2ccccc2)N1` [phenytoin], in data set [4], the “dimension of the majority of the particles” value is not above 1 μm.
